In patent US8759334B2, “Compounds useful for the treatment of metabolic and inflammatory diseases” (Galapagos NV, priority 2011, dated 2014):

What was measured:
GPR43 [1] = target: T1, GPR43 (Homo sapiens, UniProt O15552); assay: Calcium mobilization assay without probenecid; type: cell-based; settings: GPR43 stably expressing cells, triggered with sodium acetate at EC80, read-out: GPR43 assay without probenicid IC50
T1 construct: expressed in transfected cells
T1 sequence (O15552 1-330): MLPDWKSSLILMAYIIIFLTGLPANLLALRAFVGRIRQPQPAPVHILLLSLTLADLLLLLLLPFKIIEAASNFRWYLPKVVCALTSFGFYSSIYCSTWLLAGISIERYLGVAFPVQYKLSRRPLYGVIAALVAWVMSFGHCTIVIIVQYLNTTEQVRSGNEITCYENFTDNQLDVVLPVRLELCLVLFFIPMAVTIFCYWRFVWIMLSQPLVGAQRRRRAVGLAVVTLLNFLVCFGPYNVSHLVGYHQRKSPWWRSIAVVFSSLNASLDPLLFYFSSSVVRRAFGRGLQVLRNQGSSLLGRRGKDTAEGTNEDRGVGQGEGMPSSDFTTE
Outline: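 In GPR43-expressing cells loaded with a Calcium 4 dye, antagonism was tested by a 15 min compound preincubation at 37 °C, then a sodium acetate challenge at EC80, with Ca-flux read on injection. For agonism, Ca-flux was recorded directly on compound injection.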

GPR43 [2] = target: T1, GPR43; assay: Calcium mobilization assay with probenecid; type: cell-based; settings: GPR43 stably expressing cells; triggered with sodium acetate at EC80; 2.5 mM probenecid; read-out: GPR43 assay with probenicid IC50
Outline: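 Cells stably expressing GPR43 plated overnight at 37 °C, then loaded 2 h with Calcium 4 dye plus 2.5 mM probenecid. […]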

IC50 (GPR43 [1]) [nM] | IC50 (GPR43 [2]) [nM] | Compound
101 to 500 | 501 to 1000 | CC1(C(=O)N(CC(=O)O)Cc2cccc(Cl)c2)CCN1C(=O)Cc1csc2ccccc12 (stereo not shown) [Compound 66, [[1-(2-Benzo[b]thiophen-3-yl-acetyl)-2-methyl-azetidine-2-carbonyl]-(3-chloro-benzyl)-amino]-acetic acid]
101 to 500 | 101 to 500 | Cc1cc(C)cc(CC(=O)N2CCC2(C)C(=O)N(CC#N)Cc2ccc(Cl)cc2)c1 (stereo not shown) [Compound 68, 1-[2-(3,5-dimethyl-phenyl)-acetyl]-2-methyl-azetidine-2-carboxylic acid (4-chloro-benzyl)-cyanomethyl-amide]
> 1000 | 501 to 1000 | Cc1cccc(CN(CC(=O)O)C(=O)C2(C)CCN2C(=O)Cc2csc3ccccc23)c1 (stereo not shown) [Compound 69, [[1-(2-Benzo[b]thiophen-3-yl-acetyl)-2-methyl-azetidine-2-carbonyl]-(3-methyl-benzyl)-amino]-acetic acid]
> 1000 | 501 to 1000 | Cc1cc(C)cc(CC(=O)N2CCC2(C)C(=O)N(CCC(N)=O)Cc2ccc(Cl)cc2)c1 (stereo not shown) [Compound 71, 1-[2-(3,5-Dimethyl-phenyl)-acetyl]-2-methyl-azetidine-2-carboxylic acid (2-carbamoyl-ethyl)-(4-chloro-benzyl)-amide]
501 to 1000 | 101 to 500 | Cc1cc(C)cc(CC(=O)N2CCC2(C)C(=O)N(Cc2ccc(Cl)cc2)CC(C)O)c1 (stereo not shown) [Compound 72, 1-[2-(3,5-Dimethyl-phenyl)-acetyl]-2-methyl-azetidine-2-carboxylic acid (4-chloro-benzyl)-(2-hydroxy-propyl)-amide]
> 1000 | > 1000 | Cc1cc(C)cc(CC(=O)N2CCC2(C)C(=O)N(Cc2ccc(Cl)cc2)[C@H](C)C(=O)O)c1 (stereo partly drawn) [Compound 74, (R)-2-((4-Chloro-benzyl)-{1-[2-(3,5-dimethyl-phenyl)-acetyl]-2-methyl-azetidine-2-carbonyl}-amino)-propionic acid]
101 to 500 | 101 to 500 | Cc1cc(C)cc(CC(=O)N2CCC2(C)C(=O)N(CC(N)=O)Cc2ccc(Cl)cc2)c1 (stereo not shown) [Compound 75, 1-[2-(3,5-Dimethyl-phenyl)-acetyl]-2-methyl-azetidine-2-carboxylic acid carbamoylmethyl-(4-chloro-benzyl)-amide]
> 1000 | 101 to 500 | Cc1cc(C)cc(CC(=O)N2CCC2(C)C(=O)N(CCC#N)Cc2ccc(Cl)cc2)c1 (stereo not shown) [Compound 77, 1-[2-(3,5-Dimethyl-phenyl)-acetyl]-2-methyl-azetidine-2-carboxylic acid (4-chloro-benzyl)-(2-cyano-ethyl)-amide]
101 to 500 | 101 to 500 | CC1(C(=O)N(CC(=O)O)Cc2ccc(Cl)cc2)CCN1C(=O)Cc1coc2ccccc12 (stereo not shown) [Compound 78, [[1-(2-Benzofuran-3-yl-acetyl)-2-methyl-azetidine-2-carbonyl]-(4-chloro-benzyl)-amino]-acetic acid]
> 1000 | > 1000 | CC1(C(=O)N(CC(=O)O)Cc2ccc(Cl)cc2)CCN1C(=O)Cc1noc2ccccc12 (stereo not shown) [Compound 79, [[1-(2-Benzo[d]isoxazol-3-yl-acetyl)-2-methyl-azetidine-2-carbonyl]-(4-chloro-benzyl)-amino]-acetic acid]
> 1000 | > 1000 | Cc1cc(C)cc(CC(=O)N2CCC2(C)C(=O)N(CC(=O)NC(C)C)Cc2ccc(Cl)cc2)c1 (stereo not shown) [Compound 80, 1-[2-(3,5-Dimethyl-phenyl)-acetyl]-2-methyl-azetidine-2-carboxylic acid (4-chloro-benzyl)-(isopropylcarbamoyl-methyl)-amide]
101 to 500 | 101 to 500 | Cc1cc(C)cc(CC(=O)N2CC[C@]2(C)C(=O)N(CC(=O)O)Cc2ccc(Cl)cc2)c1 [Compound 82, ((4-Chloro-benzyl)-{(R)-1-[2-(3,5-dimethyl-phenyl)-acetyl]-2-methyl-azetidine-2-carbonyl}-amino)-acetic acid]
> 1000 | > 1000 | Cc1cc(C)cc(CC(=O)N2CCC2(C)C(=O)N(CC(=O)N2CCOCC2)Cc2ccc(Cl)cc2)c1 (stereo not shown) [Compound 83, 1-[2-(3,5-Dimethyl-phenyl)-acetyl]-2-methyl-azetidine-2-carboxylic acid (4-chloro-benzyl)-(2-morpholin-4-yl-2-oxo-ethyl)-amide]
101 to 500 | 101 to 500 | CC1(C(=O)N(CC#N)Cc2ccc(Cl)cc2)CCN1C(=O)Cc1csc2ccccc12 (stereo not shown) [Compound 84, 1-(2-Benzo[b]thiophen-3-yl-acetyl)-2-methyl-azetidine-2-carboxylic acid (4-chloro-benzyl)-cyanomethyl-amide]
> 1000 | 101 to 500 | O=C(O)CN(Cc1ccc(Cl)cc1)C(=O)C1(CO)CCN1C(=O)Cc1csc2ccccc12 (stereo not shown) [Compound 85, [[1-(2-Benzo[b]thiophen-3-yl-acetyl)-2-hydroxymethyl-azetidine-2-carbonyl]-(4-chloro-benzyl)-amino]-acetic acid]
101 to 500 | 0.01 to 100 | COC(=O)CCN(Cc1ccc(Cl)cc1)C(=O)C1(C)CCN1C(=O)Cc1csc2ccccc12 (stereo not shown) [Compound 86, 3-[[1-(2-Benzo[b]thiophen-3-yl-acetyl)-2-methyl-azetidine-2-carbonyl]-(4-chloro-benzyl)-amino]-propionic acid methyl ester]
501 to 1000 | 501 to 1000 | CCOC(=O)CCCN(Cc1ccc(Cl)cc1)C(=O)C1(C)CCN1C(=O)Cc1csc2ccccc12 (stereo not shown) [Compound 87, 4-[[1-(2-Benzo[b]thiophen-3-yl-acetyl)-2-methyl-azetidine-2-carbonyl]-(4-chloro-benzyl)-amino]-butyric acid ethyl ester]
101 to 500 | 101 to 500 | CC1(C(=O)N(CCC(=O)O)Cc2ccc(Cl)cc2)CCN1C(=O)Cc1csc2ccccc12 (stereo not shown) [Compound 88, 3-[[1-(2-Benzo[b]thiophen-3-yl-acetyl)-2-methyl-azetidine-2-carbonyl]-(4-chloro-benzyl)-amino]-propionic acid]
> 1000 | > 1000 | CN(Cc1ccc(Cl)cc1)C(=O)C1(C)CCN1C(=O)Cc1cn(C)c2ccccc12 (stereo not shown) [Compound 91, 2-Methyl-1-[2-(1-methyl-1H-indol-3-yl)-acetyl]-azetidine-2-carboxylic acid (4-chloro-benzyl)-methyl-amide]
> 1000 | > 1000 | Cc1cc(C)cc(CC(=O)N2CCC2(C)C(=O)N(CC(=O)NS(=O)(=O)C(F)(F)F)Cc2ccc(Cl)cc2)c1 (stereo not shown) [Compound 94, 1-[2-(3,5-Dimethyl-phenyl)-acetyl]-2-methyl-azetidine-2-carboxylic acid (4-chloro-benzyl)-(2-oxo-2-trifluoromethanesulfonylamino-ethyl)-amide]
501 to 1000 | > 1000 | Cc1cc(C)cc(CC(=O)N2CCC2(C)C(=O)N(CC(=O)NS(C)(=O)=O)Cc2ccc(Cl)cc2)c1 (stereo not shown) [Compound 95, 1-[2-(3,5-Dimethyl-phenyl)-acetyl]-2-methyl-azetidine-2-carboxylic acid (4-chloro-benzyl)-(2-methanesulfonylamino-2-oxo-ethyl)-amide]
101 to 500 | 501 to 1000 | Cc1cc(C)cc(CC(=O)N2CCC2(C)C(=O)N(CCCC#N)Cc2ccc(Cl)cc2)c1 (stereo not shown) [Compound 97, 1-[2-(3,5-Dimethyl-phenyl)-acetyl]-2-methyl-azetidine-2-carboxylic acid (4-chloro-benzyl)-(3-cyano-propyl)-amide]
101 to 500 | 101 to 500 | CN(Cc1ccc(Cl)cc1)C(=O)C1(C)CCN1C(=O)c1csc2ccccc12 (stereo not shown) [Compound 98, 1-(Benzo[b]thiophene-3-carbonyl)-2-methyl-azetidine-2-carboxylic acid (4-chloro-benzyl)-methyl-amide]
0.01 to 100 | 0.01 to 100 | CC1(C(=O)N(CCCc2nnn[nH]2)Cc2ccc(Cl)cc2)CCN1C(=O)Cc1csc2ccccc12 (stereo not shown) [Compound 100, 1-(2-Benzo[b]thiophen-3-yl-acetyl)-2-methyl-azetidine-2-carboxylic acid (4-chloro-benzyl)-[3-(1H-tetrazol-5-yl)-propyl]-amide]
101 to 500 | 101 to 500 | CC(=O)NCCN(Cc1ccc(Cl)cc1)C(=O)C1(C)CCN1C(=O)Cc1cc(C)cc(C)c1 (stereo not shown) [Compound 101, 1-[2-(3,5-Dimethyl-phenyl)-acetyl]-2-methyl-azetidine-2-carboxylic acid (2-acetylamino-ethyl)-(4-chloro-benzyl)-amide]
501 to 1000 | 101 to 500 | Cc1cc(C)cc(CC(=O)N2CCC2(C)C(=O)N(CCNS(C)(=O)=O)Cc2ccc(Cl)cc2)c1 (stereo not shown) [Compound 102, 1-[2-(3,5-Dimethyl-phenyl)-acetyl]-2-methyl-azetidine-2-carboxylic acid (4-chloro-benzyl)-(2-methanesulfonylamino-ethyl)-amide]
